Emax and EC50 data for 27 compounds are collected here from US20250230155A1 (Vanderbilt University, priority 2021, published 2025).

The experiment has as its target T1, human mAChR M4 (Homo sapiens, UniProt P08173).
T1 construct: expressed in transfected cells
T1 sequence (P08173 1-479): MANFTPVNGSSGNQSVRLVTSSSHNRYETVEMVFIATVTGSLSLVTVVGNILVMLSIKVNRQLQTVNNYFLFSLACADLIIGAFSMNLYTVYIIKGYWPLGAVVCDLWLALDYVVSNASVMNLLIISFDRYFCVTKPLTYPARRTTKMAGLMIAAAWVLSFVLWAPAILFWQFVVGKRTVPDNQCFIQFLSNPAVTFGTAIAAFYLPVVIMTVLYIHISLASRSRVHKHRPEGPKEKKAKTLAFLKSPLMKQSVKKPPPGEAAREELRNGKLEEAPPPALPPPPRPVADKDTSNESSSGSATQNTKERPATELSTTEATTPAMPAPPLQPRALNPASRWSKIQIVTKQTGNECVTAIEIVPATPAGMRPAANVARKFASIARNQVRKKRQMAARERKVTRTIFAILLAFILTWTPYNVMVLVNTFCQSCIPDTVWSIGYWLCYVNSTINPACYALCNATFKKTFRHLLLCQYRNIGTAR
Kind of experiment: mAChR M4 cell-based functional assay (calcium mobilization, CHO-K1 hM4-Gqi5 cells). Conditions: for Emax at 30 µM: CHO-K1, % ACh maximum at 30 μM, human M4; for EC50: increase in the EC20 acetylcholine response, CHO-K1 hM4-Gqi5 cells; for Emax: CHO-K1. Summed up: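 CHO-K1 cells stably expressing human M4 with chimeric Gqi5, loaded with Fluo-4 AM; compounds given as 11-point 1:3 curves and calcium flux read on FDSS at 1 Hz. Acetylcholine EC20 added at 144 s, EC80 at 230 s; agonist, PAM (EC20 potentiation) and antagonist (EC80 inhibition) EC50/Emax from four-parameter fits.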

Where [1] appears, read: positive allosteric modulator activity, read-out: Human M4 EC50.
The mark [2] stands for this setting: Human M4 EC50, positive allosteric modulator activity.

What is called Emax is the greatest response seen or fitted, relative to the assay's reference. Broadly, the EC50 is the concentration at which the effect is half-maximal.

Read-outs that look alike come from different tables or passages of the source.

With `Cc1cc(C(=O)N2CCCC2)nnc1N1CCc2ncc(CC(F)(F)F)cc2C1` [Example 582, (5-methyl-6-(3-(2,2,2-trifluoroethyl)-7,8-dihydro-1,6-naphthyridin-6(5H)-yl)pyridazin-3-yl)(pyrrolidin-1-yl)methanone], the Emax at 30 µM worked out at 76%. Further, under setting [1], the EC50 turned out to be 1.91 µM. As for `Cc1cc(C#N)cnc1N1CCc2ncc(Nc3cccnc3F)cc2C1` [compound 166, 6-[3-[(2-fluoro-3-pyridyl)amino]-7,8-dihydro-5H-1,6-naphthyridin-6-yl]-5-methyl-pyridine-3-carbonitrile], the Emax came to 106%. The EC50 under setting [1] turned out to be 0.0451 µM. As for `Cc1cc(C#N)cnc1N1CCc2ncc(-c3cn(C)nc3C)cc2C1` [compound 103, 6-[3-(1,3-dimethylpyrazol-4-yl)-7,8-dihydro-5H-1,6-naphthyridin-6-yl]-5-methyl-pyridine-3-carbonitrile], the Emax at 30 µM is 95%. Also, the EC50 under setting [1] worked out at 0.158 µM. As to `Cc1c(C#N)nnc(N2CCc3ncc(-c4ccc(F)nc4)cc3C2)c1C` [Example 334, 6-(3-(6-fluoropyridin-3-yl)-7,8-dihydro-1,6-naphthyridin-6(5H)-yl)-4,5-dimethylpyridazine-3-carbonitrile], the Emax at 30 µM was found to be 60%. The EC50 under setting [1] worked out at 0.582 µM.

Consider `Cc1c(C#N)nnc(N2CCc3ncc(Nc4ccc(Cl)cc4F)cc3C2)c1C` [compound 46, 6-[3-(4-chloro-2-fluoro-anilino)-7,8-dihydro-5H-1,6-naphthyridin-6-yl]-4,5-dimethyl-pyridazine-3-carbonitrile], for which the Emax at 30 µM worked out at 34%. The concentration giving a half-maximal response (EC50) under setting [1] is 0.97 µM. The corresponding values for `Cc1c(Cl)nc(C(F)(F)F)nc1N1CCc2ncc(-c3ccc(N(C)C)nc3)cc2C1` [compound 246, 5-(6-(6-chloro-5-methyl-2-(trifluoromethyl)pyrimidin-4-yl)-5,6,7,8-tetrahydro-1,6-naphthyridin-3-yl)-N,N-dimethylpyridin-2-amine] are 19% and 8.39 µM. On the same counts, the results for `Cc1c(C(=O)NCc2cncs2)nnc(N2CCc3ncccc3C2)c1C` [compound 138, 6-(7,8-dihydro-5H-1,6-naphthyridin-6-yl)-4,5-dimethyl-N-(thiazol-5-ylmethyl)pyridazine-3-carboxamide] are 96% and 1.11 µM. The corresponding values for `Cc1nc(N2CCCC2)nc(N2CCc3ncc(Nc4ccnn4C)cc3C2)c1C` [compound 277, 6-(5,6-dimethyl-2-(pyrrolidin-1-yl)pyrimidin-4-yl)-N-(1-methyl-1H-pyrazol-5-yl)-5,6,7,8-tetrahydro-1,6-naphthyridin-3-amine] are 98% and 0.092 µM. In the case of `Cc1cc(C#N)cnc1N1Cc2cc(N3CCOCC3)cnc2C(C)C1` (centres unmarked) [Example 405, 5-methyl-6-(8-methyl-3-morpholino-7,8-dihydro-1,6-naphthyridin-6(5H)-yl)nicotinonitrile], the Emax at 30 µM is 83%. Besides, under setting [1], the EC50 turned out to be 0.415 µM. For `Cc1cc(C(=O)NCc2ccc3ncnn3c2)cnc1N1CCc2ncc(-c3cn(C)nc3C)cc2C1` [Example 479, N-([1,2,4]triazolo[1,5-a]pyridin-6-ylmethyl)-6-(3-(1,3-dimethyl-1/- pyrazol-4-yl)-7,8-dihydro-1,6-naphthyridin-6(5H)-yl)-5-methylnicotinamide], the Emax at 30 µM was determined as 57%. Further, the EC50 under setting [1] turned out to be 0.886 µM.

Regarding `Cc1nc(Cl)c(C)c(N2CCc3ncc(Oc4ccc5c(cnn5C)c4)cc3C2)n1` [compound 208, 6-(6-chloro-2,5-dimethyl-pyrimidin-4-yl)-3-(1-methylindazol-5-yl)oxy-7,8-dihydro-5H-1,6-naphthyridine], the Emax at 30 µM is 76%. Also, under setting [1], the EC50 is 0.304 µM. On the same counts, the results for `Cc1cc(C(=O)NCc2cnc(Cl)s2)cnc1N1CCc2ncc(-c3cn(C)nc3C)cc2C1` [Example 455, N-((2-chlorothiazol-5-yl)methyl)-6-(3-(1,3-dimethyl-1H-pyrazol-4-yl)-7,8-dihydro-1,6-naphthyridin-6(5H)-yl)-5-methylnicotinamide] are 93% and 0.581 µM. On the same counts, the results for `Cc1cc(C#N)cnc1N1CCc2ncc(Oc3cc(F)ccc3F)cc2C1` [Example 351, 6-(3-(2,5-difluorophenoxy)-7,8-dihydro-1,6-naphthyridin-6(5H)-yl)-5-methylnicotinonitrile] are 88% and 0.16 µM. As to `[2H]C([2H])(NC(=O)c1cc(C)c(N2CCc3ncc(N4CCCn5nccc54)cc3C2)nn1)c1cscn1` [Example 508, 6-(3-(6,7-dihydropyrazolo[1,5-a]pyrimidin-4(5H)-yl)-7,8-dihydro-1,6-naphthyridin-6(5H)-yl)-5-methyl-N-(thiazol-4-ylmethyl-d2)pyridazine-3-carboxamide], the Emax at 30 µM amounted to 82%. Moreover, under setting [1], the EC50 was 0.013 µM. As for `Cc1cnc2c(c1)CN(c1ncc(C#N)cc1C)CC2` [compound 179, 5-methyl-6-(3-methyl-7,8-dihydro-5H-1,6-naphthyridin-6-yl)pyridine-3-carbonitrile], the Emax was 98%. Also, under setting [2], the EC50 is 0.1 µM. On to `Cc1nn(C)cc1-c1cnc2c(c1)CN(c1nc(N3CCN(C)CC3)nc(C)c1C)CC2` [compound 275, 3-(1,3-dimethyl-1/-pyrazol-4-yl)-6-(5,6-dimethyl-2-(4-methylpiperazin-1-yl)pyrimidin-4-yl)-5,6,7,8-tetrahydro-1,6-naphthyridine], for which the Emax at 30 µM is 86%. Also, the 50% effective concentration (EC50) under setting [1] amounted to 0.981 µM. On the same counts, the results for `Cc1cc(C#N)cnc1N1CCc2ncc(C3CCOC3)cc2C1` (centres unmarked) [Example 395, 5-methyl-6-(3-(tetrahydrofuran-3-yl)-7,8-dihydro-1,6-naphthyridin-6(5H)-yl)nicotinonitrile] are 90% and 0.389 µM. The corresponding values for `[2H]C([2H])([2H])c1cnc2c(c1)CN(c1nnc(C(=O)N3CCCC3)cc1C)CC2` [Example 578, (5-methyl-6-(3-(methyl-d3)-7,8-dihydro-1,6-naphthyridin-6(5H)-yl)pyridazin-3-yl)(pyrrolidin-1-yl)methanone] are 105% and 2.44 µM.

`Cc1nc(N2CCCC2)c(C)c(N2CCc3ncc(-c4ccc(F)nc4)cc3C2)n1` [compound 223, 6-(2,5-dimethyl-6-(pyrrolidin-1-yl)pyrimidin-4-yl)-3-(6-fluoropyridin-3-yl)-5,6,7,8-tetrahydro-1,6-naphthyridine]: the Emax at 30 µM was 56%. The EC50 under setting [1] worked out at 3.29 µM. Consider `Cc1c(C#N)nnc(N2CCc3ncc(Nc4cccc(Cl)c4F)cc3C2)c1C` [Example 36], for which the Emax at 30 µM came out at 66%. For the same compound, the EC50 under setting [1] came out at 0.698 µM.

Consider `Cc1c(C#N)nnc(N2CCc3ncc(-c4ccnnc4)cc3C2)c1C` [compound 48, 4,5-dimethyl-6-(3-pyridazin-4-yl-7,8-dihydro-5H-1,6-naphthyridin-6-yl)pyridazine-3-carbonitrile], for which the Emax at 30 µM was found to be 82%. Moreover, the EC50 under setting [1] amounted to 1.81 µM. In the case of `Cc1cc(C#N)nnc1N1CCc2ncc(C3CC3)cc2C1` [Example 393, 6-(3-cyclopropyl-7,8-dihydro-1,6-naphthyridin-6(5H)-yl)-5-methylpyridazine-3-carbonitrile], the Emax came out at 88%. In addition, under setting [1], the EC50 amounted to 0.111 µM. With `FC(F)(F)c1cnc2c(c1)CN(c1nc(Cl)nc3c1COC3)CC2` [compound 281, 2-chloro-4-(3-(trifluoromethyl)-7,8-dihydro-1,6-naphthyridin-6(5H)-yl)-5,7-dihydrofuro[3,4-d]pyrimidine], the EC50 under setting [1] came out at 3.29 µM. Regarding `Cc1nc(Cl)c(C)c(N2CCc3ncc(C4CC4)cc3C2)n1` [compound 225, 6-(6-chloro-2,5-dimethylpyrimidin-4-yl)-3-cyclopropyl-5,6,7,8-tetrahydro-1,6-naphthyridine], the Emax is 87%. For the same compound, the EC50 under setting [2] stood at 0.057 µM. As to `Cc1c(C#N)nnc(N2CCc3ncc(-c4cnn(C(F)F)c4)cc3C2)c1C` [Example 326, 6-(3-(1-(difluoromethyl)-1H-pyrazol-4-yl)-7,8-dihydro-1,6-naphthyridin-6(5H)-yl)-4,5-dimethylpyridazine-3-carbonitrile], the Emax at 30 µM was 68%. For the same compound, under setting [1], the EC50 is 0.611 µM. The corresponding values for `Cc1nn(C)cc1-c1cnc2c(c1)CN(c1nc(N3CCCC3)nc(C)c1C)CC2` [compound 271, 3-(1,3-dimethyl-1H-pyrazol-4-yl)-6-(5,6-dimethyl-2-(pyrrolidin-1-yl)pyrimidin-4-yl)-5,6,7,8-tetrahydro-1,6-naphthyridine] are 78% and 0.214 µM. On the same counts, the results for `Cc1ccncc1-c1cnc2c(c1)CN(c1nnc(C#N)cc1C)CC2` [Example 322, 5-methyl-6-(3-(4-methylpyridin-3-yl)-7,8-dihydro-1,6-naphthyridin-6(5H)-yl)pyridazine-3-carbonitrile] are 86% and 1.04 µM.
